US8039585B2, “Therapeutic administration of the scrambled anti-angiogenic peptide C16Y” (The United States of America as represented by the …, priority 2004, dated 2011)
Where two headings read alike, the source gives them in different places.

Assays:
[1] = tested on: MDA-MB 231 breast cancer cells; test: Primary tumor growth in nude mice (s.c. MDA-MB 231); assay type: in vivo; settings: 1 mg/day i.p.
Procedure: FIG. 7: Inhibition of primary tumor growth by C16Y. MDA-MB 231 cancer cells were injected subcutaneously (s.c.) into nude mice and the tumors were allowed to grow until they reached 200-300 mm^3. Mice were then treated daily for 7-10 days with C16 (1 mg/day) or C16Y peptides (0.2, 0.5, or 1 mg/day) by intraperitoneal (i.p.) injection. Control mice were injected with water only. Tumor size was measured at 0, 3, 6, and 9 days after peptide injections began. A. Mice were treated with 1 mg/day of either C16 or C16Y peptide for 10 days. […] B. Mice were treated with C16Y peptide at varying concentrations for 7 days. C16Y decreased tumor size at all concentrations tested during the 7 days it was administered. Tumor growth resumed when administration of the C16Y peptide was halted, with tumor size increasing more rapidly in mice treated with lower dosages of C16Y. Bars represent ±SD.
MDA-MB 231 breast cancer cells (5×10^5 cells) mixed with Matrigel (1:4) were injected subcutaneously (s.c.) into nude mice. […] Tumor growth was monitored with a caliper, with measurements being taken on days 0, 3, 6, and 9 after the first peptide injection. Tumor volume was determined using the formula width^2×length×0.52. […] Vessel number was determined by staining sections with a CD-31 antibody (Nomizu 2001) and counting 6 fields per section per mouse (n=2 section/mouse; total 3 mice).

MDA-MB 231 cells = test: Tumor cell proliferation assay (Cell Titer 96 Aqueous); assay type: cell-based; settings: 100 μg/ml, 2-72 hours
Procedure: A proliferation assay was performed to determine whether the tumor inhibition discussed in Example 6 was the result of angiogenesis inhibition or some effect on cell proliferation. Proliferation of MDA-MB 231 cells was quantified using a Cell Titer 96 Aqueous Cell Proliferation assay kit (Promega, Madison, Wis.). Cells were plated on four 96-well dishes at 5×10^3 cells/well and cultured in AIM-V serum-free medium (Life Technologies, Inc., Gaithersburg, Md.). After 1 hour, peptides C16 and C16Y were added at a final concentration of 100 μg/ml. A separate dish was used to quantitate proliferation at 2, 24, 48, and 72 hours by reading absorbance at 490 nm on an Emax plate reader. Each experiment was repeated in triplicate two times.

[2] = tested on: MDA-MB 231 breast tumor cells; assay type: in vivo, chick; settings: for Average tumor weight: 7 day incubation
Procedure: FIG. 6: Inhibition of CAM tumor growth by C16Y. MDA-MB 231 breast tumor cells were mixed with C16 or C16Y peptides (at either 50 or 100 μg/ml), then mixed with 1:1 with neutralized collagen I solution. The collagen I gel was overlayed with the CAM of a 7-day-old embryo for 7 days, after which the membrane was fixed and tumor cells were removed and weighed. In the absence of either peptide, average tumor weight was 5.40±0.59 mg. […] C16Y peptide inhibited tumor growth by approximately 40% at both concentrations tested. Bars represent ±SD.
The effect of C16Y on tumor growth in vivo was analyzed using the CAM assay (Gho 2001). MDA-MB 231 breast tumor cells (a gift of Dan Welch, Pennsylvania State University, University Park, Pa.) (1×10^6 cells/0.1 ml) in RPMI 1640 were mixed with 0, 50, or 100 μg/ml of C16 or C16Y, and then mixed 1:1 with a neutralized collagen I solution (4.6 mg/ml collagen type 1). This collagen I gel was overlayed with the CAM of a 7-day-old embryo. After a 7 day incubation, the membrane was fixed and tumor cells were removed and weighed. This experiment was repeated twice, with each data point tested in at least six replicates.

HUVECs = test: Endothelial cell tube-forming assay on Matrigel; assay type: cell-based, human; parameters: key to Disruption of tube formation / Activity (tube formation, truncated C16Y peptides): +: tubes slightly affected; ++: tubes moderately affected; +++: tubes disrupted; ++++: tubes completely disrupted; −: tubes resemble control; settings: for Disruption of tube formation: 16 hours
Procedure: FIG. 3: Disruption of endothelial cell tube formation by C16Y peptide. 48-well plates were coated with 200 μl of Matrigel per well. Each well was treated with RPMI containing 24,000 human umbilical vein endothelial cells (HUVECS) and 100 mg/L endothelial cell growth factor in the presence of 10-75 μg/ml of C16 or scrambled C16 peptide for 16 hours. Control wells contained medium only. Cells were fixed and stained, and tube formation was scored by a blinded observer.
Tube-forming assays were performed as described previously (Ponce 2001). 48-well plates were coated with 200 μl/well of Matrigel (Gho 2001; Kubota 1988), a basement membrane matrix. HUVECs (24,000 cells/well) were plated in RPMI 1640 containing 10% bovine calf serum, defined and supplemented (HyClone Laboratories, Inc., Logan, Utah), along with 100 mg/liter of endothelial cell growth factor (Collaborative Biomedical). C16 or scrambled C16 peptides were added at concentrations ranging from 10-75 μg/ml. Control wells contained medium only. After 16 hours, cells were fixed and stained with Diff-Quick fixative (methanol) and solution II (6.25% (w/v) each of azure A and methylene blue) (Dade A G, Dudingen, Switzerland), and tube formation was scored by a blinded observer. Each peptide was tested at least in triplicate, and the assays were repeated a minimum of three times.
Tube formation assays were repeated using truncated versions of the C16Y peptide to determine the minimal active sequence of the peptide. The carboxyl end of C16Y was not necessary for activity, whereas the amino terminal aspartic acid was required. The minimal active sequence for the C16Y peptide is shown in SEQ ID NO: 2. Each of the peptides containing at least this 8 amino acid sequence (SEQ ID NOs: 1-5) inhibited tube formation.

[3] = tested on: C16-induced angiogenesis in the chick CAM; test: CAM assay, C16-induced angiogenesis; assay type: in vivo; settings: peptide alone (C16: 0.5 μg)
Procedure: FIG. 4: Inhibition of C16-induced angiogenesis by C16Y. 0.5 μg of angiogenic stimulator (C16 peptide) and varying concentrations of either C16S or C16Y peptides were applied to 10-day-old embryonated eggs in 5 μl of water. After 3 days, microphotographs were taken of the eggs to determine angiogenesis levels. Negative control eggs were treated with water only (panel a), while positive control eggs were treated with bFGF only (not shown). As expected, C16 peptide administered alone stimulated angiogenesis (panel d). […] When the amount of inhibitor peptide was lowered to 0.05 μg, C16Y peptide continued to inhibit angiogenesis (panel f), while C16S peptide had no effect (panel c).
The CAM assay was performed using 10-day-old embryonated eggs (CBT, Charlestown, Md.) as described previously (Gho 1999). On embryonal day 3, approximately 4 ml of ovalbumin was removed from each egg. After opening windows on embryonal day 10, the angiogenic stimulus (C16) and test competitor peptides in 5 μl of distilled water were applied to the CAM after drying on 13-mm diameter quartered plastic coverslips (Thermanox; Nalge, NUNC International, Naperville, Ill.). Three days later, the eggs were scored for a positive response and photographed. The positive control was bFGF, and the negative control was the vehicle water. Experiments were repeated twice using a minimum of 11 eggs for each data point.

## KAFDITYVRLKF [Peptide C16, angiogenic peptide from the γ1 chain of laminin-1]
[1]; 7 days, stated jointly with control mice
  Tumor size relative to original size: 1.7-2.5 times their original size
[1]; after 7 days
  Tumor growth: did not significantly affect tumor growth
MDA-MB 231 cells
  Effect on MDA-MB 231 cell proliferation: Neither C16 nor C16Y altered MDA-MB 231 cell proliferation
[2]; 50 μg/ml peptide
  Average tumor weight: 5.45 ± 0.84 mg
[2]; 100 μg/ml peptide
  Average tumor weight: 5.85 ± 0.54 mg
[2]; P≦0.027
  Vessels observed in tumors: 9.6±0.23
HUVECs; 10-75 μg/ml tested
  Dose at which tube formation is disrupted (lowest active): 50 µg/mL
HUVECs; peptide concentration 10 μg/ml
  Disruption of tube formation: −
HUVECs; peptide concentration 25 μg/ml
  Disruption of tube formation: −
HUVECs; peptide concentration 50 μg/ml
  Disruption of tube formation: +
HUVECs; peptide concentration 75 μg/ml
  Disruption of tube formation: +++
[3]
  Angiogenesis with peptide administered alone: capable of inducing angiogenesis
